Common to all, as to format: physicochemical
Data set [1] in a line: Particle size distribution by laser light diffraction (LLD). The source says: Values are given in micrometer, measurements done by laser light diffraction (LLD).
Data set [2] is described as follows: FT4 powder rheometer powder characterization (8-parameter model). Further details: MPS-15: unit not given here. As to conditions: HDM201-BBA batches, listed as C3. The method, then: A standard FT4 powder rheometer offers at least 6 powder characterization methods (per measurement cylinder diameter). Those selected for analysis are
25 mm_1C_Split_Rep+VFR_R01;
25 mm_Compressibility_1-15 kPa;
25 mm_Wall Friction_30 kPa.
Each characterization method produces several kind of response parameters (default or manually selectable). A set of complete powder characterizations (at least 22 response parameters per row) were measured for more than 350 different powders and more than 60 different compounds using a standard FT4 powder rheometer and compiled in a database. The various parameters were correlated to the respective filling behavior in order to determine a set of parameters and parameter ranges which is capable of distinguishing and predicting filling behavior of powders.
sBFE: Specific Basic Flow Energy (mJ/g): obtained from BFE (obtained from standard FT4 test platform) divided by the split mass of the sample.
SI: Stability Index, standard variable, dimensionless.
SE: Specific Energy (mJ/g), standard variable
MPS @ 15 kPa: major Principal Stress, standard variable
FF @ 15 kPa: Flow function (dimensionless), from shear cell, standard variable
CBD @ 15 kPa: Consolidated Bulk Density (g/mL), standard variable (from shear cell)
CPS: Compressibility (%), standard variable
WFA: Wall Friction Angle (degree°), standard variable.

The nature of data set [3]: Crystal/particle shape, size and bulk density of reference API powders. From the text:
NBU928 is a fumarate salt with a challenging crystallization process. The resulting particles typically have an elongated aspect ratio, crystals are lath shaped up to 400 μm long with strong agglomeration tendency. Such kind of crystal shape give a resulting powder bulk which is not directly processable in any capsule filler equipment. Therefore the API powder was subjected to a Particle Engineering treatment to selectively grow the shot side of the crystal then it was milled down through a pin mill equipment obtaining a quite regular fragmentation, leading to smaller particles with more steady aspect ratio, free of agglomeration, with an average diameter (X50) of about 25 μm.
CDZ173 is a mono-phosphate salt compound. It is characterized by needle shaped crystals with aspect ratio >10, agglomerated/fused rod-like crystals, very low bulk density (always <0.2 g/mL, very often <0.12 g/mL). It is here reported in two different variants (milled and un-milled).

Data set [4] is described as follows: Behaviour of co-crystal in aqueous media.
The mark [5] stands for this setting: laser light diffraction, pin-milled HDM201-BBA batches, listed as C3.

Bounds are passed on as bounds.

In data set [1] (setting [5]), `COc1ncc(-c2nc3c(n2C(C)C)[C@H](c2ccc(Cl)cc2)N(c2cc(Cl)cn(C)c2=O)C3=O)c(OC)n1.O=C(O)CCC(=O)O` [Batch C3] showed an X10 of 3 micrometer, an X50 of 19 micrometer and an X90 of 58 micrometer. In data set [2] (FT4, Group 1), the SI is 1.03 and the sBFE is on record as 8 mJ/g. In data set [2] (FT4, Group 2), this molecule showed a CBD-15 of 0.62 g/mL, an FF-15 of 3.7 and an MPS-15 of 29. Besides, the CPS in data set [2] (FT4, Group 3) was found to be 36%.

As for `CCC(=O)N1CC[C@H](Nc2ncnc3c2CN(c2cnc(OC)c(C(F)(F)F)c2)CC3)C1.O=P(O)(O)O` [CDZ173], the bulk density is less than 0.2 g/mL in data set [3] (always) and less than 0.12 g/mL in data set [3] (very often). In addition, the “aspect ratio of crystals” value in data set [3] (needle shaped crystals) was greater than 10.

Consider `COc1ncc(-c2nc3c(n2C(C)C)[C@H](c2ccc(Cl)cc2)N(c2cc(Cl)cn(C)c2=O)C3=O)c(OC)n1` [HDM201-BBA, (6S)-5-(5-Chloro-1-methyl-2-oxo-1,2-dihydropyridin-3-yl)-6-(4-chlorophenyl)-2-(2,4-dimethoxypyrimidin-5-yl)-1-(propan-2-yl)-5,6-dihydropyrrolo[3,4-d]imidazol-4(1H)-one], for which, in data set [1], the “particle size range X90(LLD) found suitable for direct encapsulation” value is on record as 10-200 micrometer. Besides, the “stability of co-crystal in aqueous media” value in data set [4] was “can disproportionate into the free form in aqueous media”.

The values are drawn from patent publication US20220175682A1, “Siremadlin Succinate” (Novartis AG, priority 2019, published 2022).
